Reference: publication PMC6651170, “New HSV-1 Anti-Viral 1′-Homocarbocyclic Nucleoside Analogs with an Optically Active Substituted Bicyclo[2.2.1]Heptane Fragment as a Glycoside Moiety” (Molecules, 2019)
Read-outs that look alike come from different tables or passages of the source.

Legend:
[1] = in vitro; details: African green monkey
[2] = tested on: herpes simplex virus type 1 (HSV-1); assay: microbe, parasite or virus in culture; assay type: cell-based; details: for IC50: Human alphaherpesvirus 1, Vero, 72 h, read-out: IC50 Herpes Simplex Virus Type 1
[3] = tested on: Yellow Fever Virus; assay: microbe, parasite or virus in culture; assay type: cell-based; details: Yellow fever virus, read-out: IC50 Yellow Fever Virus
[4] = in vitro
[5] = tested on: human adenovirus type 5 (AdV5); assay: microbe, parasite or virus in culture; assay type: cell-based; details: Human mastadenovirus C, Vero, 72 h, read-out: IC50 Human Adenovirus Type 5
[6] = in vitro; remark: listed apart in the source
[7] = tested on: Enterovirus 71; assay: microbe, parasite or virus in culture; assay type: cell-based; details: Enterovirus A, read-out: IC50 Enterovirus 71
[8] = tested on: Chikungunya Virus; assay: microbe, parasite or virus in culture; assay type: cell-based; details: Chikungunya virus, read-out: IC50 Chikungunya Virus
[9] = in vitro; remark: listed apart in the source
[10] = tested on: Influenza virus (Flu A, strain A/Puerto Rico/8/34 (H1N1)); assay: microbe, parasite or virus in culture; assay type: cell-based; details: for IC50: unidentified influenza virus, H1N1, MDCK, 48 h, read-out: IC50 Influenza Virus
[11] = in vitro; details: dog
[12] = CC50 (Herpes Simplex Virus Type 1)

Nc1nc2c(ncn2COCCO)c(=O)[nH]1 [Acyclovir, reference compound]
CC50 [1, 12]: > 1130 µM
IC50 [2]: 28 ± 4 µM

O=c1[nH]c(=O)n(C[C@H]2[C@@H]3CC(O)[C@H]2C[C@@H]3Cl)cc1F (stereo partly drawn) [Compound 4a, 1-(((1S,2S,4S,7R)-2-Chloro-5-hydroxybicyclo[2.2.1]heptan-7-yl)methyl)-5-fluoropyrimidine-2,4(1H,3H)-dione]
IC50 [3]: > 100 µM
CC50 [1, 12]: > 1040 µM
CC50 ([1]; CC50 (Human Adenovirus Type 5)): > 1040 µM
CC50 [4]: > 100 µM
IC50 [5]: > 1040 µM
CC50 [6]: > 100 µM
IC50 [7]: > 100 µM
IC50 [8]: > 100 µM
CC50 [9]: > 100 µM
IC50 [10]: 173 ± 21 µM
IC50 [2]: > 1040 µM
CC50 [11]: > 1040 µM

O=c1ccn(C[C@@H]2[C@@H]3C[C@H](Cl)[C@H]2C[C@H]3O)c(=O)[nH]1 [Compound 4b, 1-(((1S,2S,4S,5R,7R)-2-Chloro-5-hydroxybicyclo[2.2.1]heptan-7-yl)methyl)pyrimidine-2,4(1H,3H)-dione]
IC50 [3]: > 100 µM
CC50 [1, 12]: 1110 µM
CC50 ([1]; CC50 (Human Adenovirus Type 5)): > 1110 µM
CC50 [4]: > 100 µM
IC50 [5]: > 1110 µM
CC50 [6]: > 100 µM
IC50 [7]: > 100 µM
IC50 [8]: > 100 µM
CC50 [9]: > 100 µM
IC50 [10]: 369 ± 26 µM
IC50 [2]: 705 ± 81 µM
CC50 [11]: > 1110 µM

Cc1cn(C[C@H]2[C@@H]3CC(O)[C@H]2C[C@@H]3Cl)c(=O)[nH]c1=O (stereo partly drawn) [Compound 4c, 1-(((1S,2S,4S,7R)-2-Chloro-5-hydroxybicyclo[2.2.1]heptan-7-yl)methyl)-5-methylpyrimidine-2,4(1H,3H)-dione]
IC50 [3]: > 100 µM
CC50 [1, 12]: > 1050 µM
CC50 ([1]; CC50 (Human Adenovirus Type 5)): > 1050 µM
CC50 [4]: > 100 µM
IC50 [5]: > 1050 µM
CC50 [6]: > 100 µM
IC50 [7]: > 100 µM
IC50 [8]: > 100 µM
CC50 [9]: > 100 µM
IC50 [10]: > 1050 µM
IC50 [2]: > 1050 µM
CC50 [11]: > 1050 µM

Nc1ccn(C[C@H]2[C@@H]3CC(O)[C@H]2C[C@@H]3Cl)c(=O)n1 (stereo partly drawn) [Compound 4d, 4-Amino-1-(((1S,2S,4S,7R)-2-chloro-5-hydroxybicyclo[2.2.1]heptan-7-yl)methyl)pyrimidin-2(1H)-one]
IC50 [3]: > 100 µM
CC50 [1, 12]: > 1110 µM
CC50 ([1]; CC50 (Human Adenovirus Type 5)): > 1110 µM
CC50 [4]: > 100 µM
IC50 [5]: > 1110 µM
CC50 [6]: > 100 µM
IC50 [7]: > 100 µM
IC50 [8]: > 100 µM
CC50 [9]: > 100 µM
activity against influenza virus in words [10]: active against influenza virus
IC50 [10]: 102 ± 12 µM
activity against HSV-1 in words [2]: ineffective against HSV-1
IC50 [2]: 727 ± 77 µM
CC50 [11]: > 1110 µM

OC1C[C@H]2[C@H](Cn3cnc4c(Cl)ncnc43)[C@@H]1C[C@@H]2Cl (stereo partly drawn) [Compound 5, (1S,4S,5S,7R)-5-Chloro-7-((6-chloro-9H-purin-9-yl)methyl)bicyclo[2.2.1]heptan-2-ol]
IC50 [3]: > 100 µM
CC50 [1, 12]: > 830 µM
CC50 ([1]; CC50 (Human Adenovirus Type 5)): > 958 µM
CC50 [4]: > 100 µM
IC50 [5]: > 958 µM
CC50 [6]: > 100 µM
IC50 [7]: > 100 µM
IC50 [8]: > 100 µM
CC50 [9]: > 100 µM
IC50 [10]: 254 ± 14 µM
activity against HSV-1 in words [2]: active against herpes
IC50 [2]: 69 ± 9 µM
CC50 [11]: > 958 µM

Nc1ncnc2c1ncn2C[C@H]1[C@@H]2CC(O)[C@H]1C[C@@H]2Cl (stereo partly drawn) [Compound 6a, (1S,4S,5S,7R)-7-((6-Amino-9H-purin-9-yl)methyl)-5-chlorobicyclo[2.2.1]heptan-2-ol]
IC50 [3]: > 100 µM
CC50 [1, 12]: 975 ± 64 µM
CC50 ([1]; CC50 (Human Adenovirus Type 5)): 977 ± 103 µM
CC50 [4]: > 100 µM
IC50 [5]: > 340 µM
CC50 [6]: > 100 µM
IC50 [7]: 71 µM
IC50 [8]: > 100 µM
CC50 [9]: > 100 µM
IC50 [10]: 328 ± 29 µM
IC50 [2]: 102 ± 11 µM
CC50 [11]: > 1020 µM

OC1C[C@H]2[C@H](Cn3cnc4c(NC5CC5)ncnc43)[C@@H]1C[C@@H]2Cl (stereo partly drawn) [Compound 6b, (1S,4S,5S,7R)-5-Chloro-7-((6-(cyclopropylamino)-9H-purin-9-yl)methyl)bicyclo[2.2.1]heptan-2-ol]
IC50 [3]: > 100 µM
CC50 [1, 12]: > 773 µM
CC50 ([1]; CC50 (Human Adenovirus Type 5)): > 899 µM
CC50 [4]: > 100 µM
IC50 [5]: > 899 µM
CC50 [6]: > 100 µM
IC50 [7]: > 100 µM
IC50 [8]: > 100 µM
CC50 [9]: > 100 µM
IC50 [10]: 419 ± 51 µM
IC50 [2]: 599 ± 64 µM
CC50 [11]: 752 ± 44 µM

OC1C[C@H]2[C@H](Cn3cnc4c(NC5CCCC5)ncnc43)[C@@H]1C[C@@H]2Cl (stereo partly drawn) [Compound 6c, (1S,4S,5S,7R)-5-Chloro-7-((6-(cyclopentylamino)-9H-purin-9-yl)methyl)bicyclo[2.2.1]heptan-2-ol]
IC50 [3]: > 100 µM
CC50 [1, 12]: 605 ± 42 µM
CC50 ([1]; CC50 (Human Adenovirus Type 5)): 824 ± 91 µM
CC50 [4]: > 100 µM
IC50 [5]: > 276 µM
CC50 [6]: > 100 µM
IC50 [7]: 28 ± 16 µM
IC50 [8]: > 100 µM
CC50 [9]: > 100 µM
IC50 [10]: > 83 µM
activity against HSV-1 in words [2]: active against herpes
IC50 [2]: 47 ± 6 µM
CC50 [11]: 227 ± 19 µM

OC1C[C@H]2[C@H](Cn3cnc4c(NC5CCCCC5)ncnc43)[C@@H]1C[C@@H]2Cl (stereo partly drawn) [Compound 6d, (1S,4S,5S,7R)-5-Chloro-7-((6-(cyclohexylamino)-9H-purin-9-yl)methyl)bicyclo[2.2.1]heptan-2-ol]
IC50 [3]: > 100 µM
CC50 [1, 12]: 521 ± 48 µM
CC50 ([1]; CC50 (Human Adenovirus Type 5)): 697 ± 75 µM
CC50 [4]: > 100 µM
IC50 [5]: 123 ± 14 µM
CC50 [6]: > 100 µM
IC50 [7]: 28 ± 13 µM
IC50 [8]: > 100 µM
CC50 [9]: > 100 µM
IC50 [10]: > 27 µM
activity against HSV-1 in words [2]: active against herpes
IC50 [2]: 21 ± 4 µM
CC50 [11]: 42 ± 3 µM

OC[C@@H](Cc1ccccc1)Nc1ncnc2c1ncn2C[C@H]1[C@@H]2CC(O)[C@H]1C[C@@H]2Cl (stereo partly drawn) [Compound 6e, (1S,4S,5S,7R)-5-Chloro-7-((6-(((R)-1-hydroxy-3-phenylpropan-2-yl)amino)-9H-purin-9-yl)methyl)bicyclo[2.2.1]heptan-2-ol]
IC50 [3]: > 100 µM
CC50 [1, 12]: > 608 µM
CC50 ([1]; CC50 (Human Adenovirus Type 5)): > 701 µM
CC50 [4]: > 100 µM
IC50 [5]: > 701 µM
CC50 [6]: > 100 µM
IC50 [7]: > 100 µM
IC50 [8]: > 100 µM
CC50 [9]: > 100 µM
IC50 [10]: > 26 µM
IC50 [2]: 380 ± 46 µM
CC50 [11]: 188 ± 22 µM

CN1CCN(c2ncnc3c2ncn3C[C@H]2[C@@H]3CC(O)[C@H]2C[C@@H]3Cl)CC1 (stereo partly drawn) [Compound 6f, (1S,4S,5S,7R)-5-Chloro-7-((6-(4-methylpiperazin-1-yl)-9H-purin-9-yl)methyl)bicyclo[2.2.1]heptan-2-ol]
IC50 [3]: > 100 µM
CC50 [1, 12]: > 719 µM
CC50 ([1]; CC50 (Human Adenovirus Type 5)): > 796 µM
CC50 [4]: > 100 µM
IC50 [5]: 105 ± 11 µM
CC50 [6]: > 100 µM
IC50 [7]: > 100 µM
IC50 [8]: > 100 µM
CC50 [9]: > 100 µM
IC50 [10]: 241 ± 30 µM
activity against HSV-1 in words [2]: active against herpes
IC50 [2]: 28 ± 4 µM
CC50 [11]: > 796 µM

CN1CCN(Nc2ncnc3c2ncn3C[C@H]2[C@@H]3CC(O)[C@H]2C[C@@H]3Cl)CC1 (stereo partly drawn) [Compound 6g, (1S,4S,5S,7R)-5-Chloro-7-((6-((4-methylpiperazin-1-yl)amino)-9H-purin-9-yl)methyl)bicyclo[2.2.1]heptan-2-ol]
IC50 [3]: > 100 µM
CC50 [1, 12]: > 766 µM
CC50 ([1]; CC50 (Human Adenovirus Type 5)): > 766 µM
CC50 [4]: > 100 µM
IC50 [5]: > 766 µM
CC50 [6]: > 100 µM
IC50 [7]: > 100 µM
IC50 [8]: > 100 µM
CC50 [9]: > 100 µM
IC50 [10]: > 766 µM
activity against HSV-1 in words [2]: complete loss of virus inhibition
IC50 [2]: 540 ± 32 µM
CC50 [11]: > 766 µM

CCOC(=O)C1=C[C@@H](OC(CC)CC)[C@H](NC(C)=O)[C@@H](N)C1 [Oseltamivir, reference compound]
IC50 [10]: 0.3 ± 0.1 µM
CC50 [11]: > 100 µM
